Consider one compound from paper PMC8746858 (Molecules, 2021).

Series [1] in a line: Solubility in water, HPLC of saturated solutions. The procedure:
Then, the obtained saturated solutions were diluted 100 times and analyzed. […] A mixture of 50% acetonitrile and 50% water was used as the mobile phase. The flow rate was 1 cm^3·min^−1. The column temperature was 30 °C. A Luna® Omega 3 µm Polar C18 100 Å column with dimensions of 150 × 4.6 mm was used. The injection volume for these samples was 50 mm^3. Each measurement was performed in triplicate, and the results were averaged.

The subject of series [2] is fibroblasts (NIH/3T3 cells). The experiment in a line: cells. The settings on record: Mus musculus, NIH3T3, 24 h. As to the method:
(§1) Finally, control experiments with non-treated cells were performed.
The effect of the compounds on the viability of murine 3T3 fibroblasts was estimated using NRU assay. After the incubation time (24 h) cells, media were removed, then to each well we added 100 µL of medium containing neutral red (50 µg/mL). […] The plates were shaken for 10 min at room temperature. Then, the absorption at 540 nm was measured using a microplate reader (Biosan). The results were calculated for each sample concentration as a percentage of medium control. The values are presented as mean ± standard deviation of three independent experiments.

Another series in a line: MTT viability assay. The conditions noted are these: human, HaCaT keratinocytes. As to the method: as §1
(§2) We applied an assay based on the reduction of methyl thiazol tetrazolium bromide (MTT) to assess the effect of the compounds on the viability of HaCaT cells. […] After that, the cells were lysed with a solution of DMSO:ethanol (1:1 v/v). The absorbance of the reduced formazan dye product was read at 560 nm in a microplate reader (Biosan). The results were calculated for each sample concentration as a percentage of medium control. The values are presented as mean ± standard deviation of three independent experiments.
Background: Formazan colour is commonly taken as a measure of viable cells.

For series [3], the system named is human keratinocytes (HaCaT cells). Nature of the series: MTT viability assay. The conditions noted are these: Homo sapiens, HaCaT, 24 h. As to the method:
as §1, §2

The conditions of series [4]: TG, air atmosphere, 10 °C·min^−1.
Series [5] in a line: Solubility in typical solvents, modified Vogel method. The conditions noted are these: 25 °C.
Excerpt: For this purpose, dimethyl sulfoxide, ethanol, chloroform, ethyl acetate, diethyl ether, toluene, and n-hexane were used as solvents.

Values after ≈ are worked out from the molar mass of the structure shown. Where two headings read alike, the source gives them in different places.

For the compound `O=C(O)c1ccccc1O` [SA, Salicylic acid, reference compound], the “Solubility in Water at 25 °C” value in series [1] (25 °C, amount of active compound (SA) per dm^3) is on record as 3.852 ± 0.004 g SA·dm^−3. Moreover, the concentration in solution in series [1] (water) (solubility) was 3852 ± 4 µg/mL (≈ 27.9 mM). In addition, the IC50 – broadly, the concentration that gives 50% inhibition – in series [2] is 300 ± 6 µg/mL. In series [2] (read-out: IC50 (in mM)), the IC50 is ~2.2 mM. Besides, in “MTT viability assay”, the viability (as a rule, a per cent measure of how many cells are alive, often set against a control) at 48 h, 0.4 mM stood at 71 ± 3%. Besides, the concentration for half-maximal inhibition (IC50) in series [3] was 200 ± 100 µg/mL. Besides, in series [3] (read-out: IC50 (in mM)), the IC50 is ~1.6 mM. For the same compound, the “Tonset, the onset of the thermal degradation” value in series [4] came to 171.3 °C. Besides, in series [5], the “Solubility in Chloroform (39.1)” value is given as “+/− (partially soluble 33–100 mg·cm^−3)”, the “Solubility in DMSO (45.1)” value is reported as “+ (soluble >100 mg·cm^−3)”, the “Solubility in Diethyl ether (34.5)” value is given as “+ (soluble >100 mg·cm^−3)” and the “Solubility in Ethanol (51.9)” value is recorded as “+ (soluble >100 mg·cm^−3)”. Also, in series [5], the “Solubility in Ethyl Acetate (38.1)” value is on record as “+ (soluble >100 mg·cm^−3)”, the “Solubility in Toluene (33.9)” value is given as “+/− (partially soluble 33–100 mg·cm^−3)” and the “Solubility in n-Hexane (31.0)” value is on record as “− (insoluble < 33 mg·cm^−3)”. In addition, in series [5] (ET(30) in parentheses), the “Solubility in Water (63.1)” value is reported as “+/− (partially soluble 33–100 mg·cm^−3)”.
